Source: patent US12465603B2, “Phthalazinone based modulators for the treatment of disease” (Soley Therapeutics, Inc., priority 2022, dated 2025)

Assays:
[1] = system: A2058 (ATCC, CRL-11147) cells; assay: Cell viability assay (Cell Titre Glo, 72 hours) in A2058 cells; format: cell-based; details: Homo sapiens
Procedure, shortened: (§1)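 10-point dose response, top final concentration 30 μM, 1 in 3 dilutions; 5000 cells per well added directly to compound. Incubated 72 hours at 37° C, 5% CO2, then viability read by Cell Titre Glo luminescence and IC50 curves fitted.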

[2] = system: PA1 (ECACC, 90013101) cells; assay: Cell viability assay (Cell Titre Glo, 72 hours) in PA1 cells; format: cell-based; details: Homo sapiens, PA-1
Procedure, shortened: as §1

Structure (SMILES): Cn1nc(C(=O)N2CCN(c3ncc(F)cc3C3CC3)CC2)c2ccccc2c1=O [Compound 19]
- IC50 [1]: 1 to 10 µM
- IC50 [2]: ≤ 1 µM

Structure (SMILES): COc1cccnc1N1CCN(C(=O)c2nn(C)c(=O)c3ccc(F)cc23)CC1 [Compound 169]
- IC50 [1]: 1 to 10 µM
- IC50 [2]: ≤ 1 µM

Structure (SMILES): Cn1nc(C(=O)N2CCN(c3nccc4sccc34)CC2)c2ccccc2c1=O [Compound 194]
- IC50 [1]: 10 to 20 µM
- IC50 [2]: 1 to 10 µM

Structure (SMILES): Cc1cc(C)cc(N2CCN(C(=O)c3nn(C)c(=O)c4ccccc34)CC2)c1 [Compound 205]
- IC50 [1]: ≤ 1 µM
- IC50 [2]: ≤ 1 µM

Structure (SMILES): CCn1nc(C(=O)N2CCN(c3ccccc3OCC(F)(F)F)CC2)c2ccccc2c1=O [Compound 147]
- IC50 [1]: 1 to 10 µM
- IC50 [2]: 1 to 10 µM
